Reference: patent US12077503B2, “Substituted cyclic amides and their use as herbicides” (FMC CORPORATION, priority 2015, dated 2024)

Legend:
Type in all cases: in vivo
[1] = system: blackgrass (Alopecurus myosuroides); experiment: Test A postemergence; conditions: Alopecurus myosuroides, post-emergence, 240 h, postemergence
How it was run: (§1)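 Treatment is preemergence as a directed soil spray after planting, or postemergence at the one- to two-leaf stage, with test chemical in a non-phytotoxic solvent mixture plus surfactant. Plants stay in the greenhouse about 10 d before visual injury scoring on a 0 to 100 scale versus untreated controls.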

[2] = system: Galium (catchweed bedstraw, Galium aparine); experiment: Test A postemergence; conditions: Galium, post-emergence, 240 h, postemergence
How it was run: as §1

[3] = system: wheat (Triticum aestivum); experiment: Test A postemergence; conditions: Triticum aestivum, post-emergence, 240 h, 125 g ai/ha, postemergence, visual injury vs untreated controls after approx. 10 d; 0 = no effect, 100 = complete control; read-out: Wheat plant response rating (0 to 100 scale)
How it was run: as §1

[4] = system: barnyardgrass (Echinochloa crus-galli); experiment: Test A postemergence; conditions: Echinochloa crus-galli, post-emergence, 240 h, postemergence
How it was run: as §1

[5] = system: pigweed (Amaranthus retroflexus); experiment: Test A postemergence; conditions: Amaranthus retroflexus, post-emergence, 240 h, postemergence
How it was run: as §1

[6] = system: giant foxtail (Setaria faberii); experiment: Test A postemergence; conditions: Setaria faberi, post-emergence, 240 h, postemergence
How it was run: as §1

corn (Zea mays) = experiment: Test A postemergence; conditions: Zea mays, post-emergence, 240 h, postemergence
How it was run: as §1

Kochia (Kochia scoparia) [7] = experiment: Test A postemergence; conditions: Bassia scoparia, post-emergence, 240 h, postemergence
How it was run: as §1

[8] = system: ragweed (common ragweed, Ambrosia elatior); experiment: Test A postemergence; conditions: Ambrosia artemisiifolia, post-emergence, 240 h, postemergence
How it was run: as §1

[9] = system: barnyardgrass (Echinochloa crus-galli); experiment: Test A preemergence; conditions: Echinochloa crus-galli, pre-emergence, 240 h, preemergence, 0 to 100 scale where 0 is no effect and 100 is complete control, read-out: Barnyardgrass plant response rating
How it was run: as §1

[10] = system: pigweed (Amaranthus retroflexus); experiment: Test A preemergence; conditions: Amaranthus retroflexus, pre-emergence, 240 h, preemergence, 0 to 100 scale where 0 is no effect and 100 is complete control, read-out: Pigweed plant response rating
[11] = system: giant foxtail (Setaria faberii); experiment: Test A preemergence; conditions: Setaria faberi, pre-emergence, 240 h, preemergence, 0 to 100 scale where 0 is no effect and 100 is complete control, read-out: Foxtail, Giant plant response rating
How it was run: as §1

[12] = system: ryegrass, Italian (Italian ryegrass, Lolium multiflorum); experiment: Test A preemergence; conditions: Lolium multiflorum, pre-emergence, 240 h, preemergence, 0 to 100 scale where 0 is no effect and 100 is complete control, read-out: Ryegrass, Italian plant response rating
How it was run: as §1

Kochia (Kochia scoparia) [13] = experiment: Test A preemergence; conditions: Bassia scoparia, pre-emergence, 240 h, preemergence, 0 to 100 scale where 0 is no effect and 100 is complete control, read-out: Kochia plant response rating
How it was run: as §1

[14] = system: ragweed (common ragweed, Ambrosia elatior); experiment: Test A preemergence; conditions: Ambrosia artemisiifolia, pre-emergence, 240 h, preemergence, 0 to 100 scale where 0 is no effect and 100 is complete control, read-out: Ragweed plant response rating
How it was run: as §1

[15] = 125 g ai/ha, visual injury rating, approximately 10 d

Question: `CSc1ccccc1NC(=O)[C@H]1C(=O)N(C)C[C@@H]1c1ccc(F)cc1` [Compound 1236] was tested. Which pest or weed control at 125 g/ha ([1]; 125 g ai/ha, visual injury vs untreated controls after approx. 10 d, 0 = no effect, 100 = complete control, read-out: Blackgrass plant response rating (0 to 100 scale)) did it give?
Answer: The pest or weed control at 125 g/ha was 30%.

Question: What about the pest or weed control at 500 g/ha ([1]; 500 g ai/ha, 0 to 100 scale, 0 is no effect, 100 is complete control, read-out: Blackgrass plant response rating) of the same molecule?
Answer: The pest or weed control at 500 g/ha was 30%.

Question: What about the pest or weed control at 125 g/ha ([2]; 125 g ai/ha, visual injury vs untreated controls after approx. 10 d, 0 = no effect, 100 = complete control, read-out: Galium plant response rating (0 to 100 scale)) of the same molecule?
Answer: Its pest or weed control at 125 g/ha is 50%.

Question: And the pest or weed control at 500 g/ha ([2]; 500 g ai/ha, 0 to 100 scale, 0 is no effect, 100 is complete control, read-out: Galium plant response rating)?
Answer: The pest or weed control at 500 g/ha was 60%.

Question: And the plant injury at 125 g/ha [3]?
Answer: Its plant injury at 125 g/ha is 0%.

Question: And the pest or weed control at 125 g/ha ([4]; 125 g ai/ha, visual injury vs untreated controls after approx. 10 d, 0 = no effect, 100 = complete control, read-out: Barnyardgrass plant response rating (0 to 100 scale))?
Answer: Its pest or weed control at 125 g/ha is 100%.

Question: What about the pest or weed control at 500 g/ha ([4]; 500 g ai/ha, 0 to 100 scale, 0 is no effect, 100 is complete control, read-out: Barnyardgrass plant response rating) of the same molecule?
Answer: The pest or weed control at 500 g/ha was 100%.

Question: What about the pest or weed control at 125 g/ha ([5]; 125 g ai/ha, visual injury vs untreated controls after approx. 10 d, 0 = no effect, 100 = complete control, read-out: Pigweed plant response rating (0 to 100 scale)) of the same molecule?
Answer: The pest or weed control at 125 g/ha was 20%.

Question: What about the pest or weed control at 500 g/ha ([5]; 500 g ai/ha, 0 to 100 scale, 0 is no effect, 100 is complete control, read-out: Pigweed plant response rating) of the same molecule?
Answer: Its pest or weed control at 500 g/ha is 40%.

Question: What about the pest or weed control at 125 g/ha ([6]; 125 g ai/ha, visual injury vs untreated controls after approx. 10 d, 0 = no effect, 100 = complete control, read-out: Foxtail, Giant plant response rating (0 to 100 scale)) of the same molecule?
Answer: The pest or weed control at 125 g/ha was 30%.

Question: What about the pest or weed control at 500 g/ha ([6]; 500 g ai/ha, 0 to 100 scale, 0 is no effect, 100 is complete control, read-out: Foxtail, Giant plant response rating) of the same molecule?
Answer: Its pest or weed control at 500 g/ha is 90%.

Question: And the plant injury at 125 g/ha (corn (Zea mays); 125 g ai/ha, visual injury vs untreated controls after approx. 10 d, 0 = no effect, 100 = complete control, read-out: Corn plant response rating (0 to 100 scale))?
Answer: Its plant injury at 125 g/ha is 60%.

Question: And the plant injury at 500 g/ha (corn (Zea mays); 500 g ai/ha, 0 to 100 scale, 0 is no effect, 100 is complete control, read-out: Corn plant response rating)?
Answer: The plant injury at 500 g/ha was 90%.

Question: What about the pest or weed control at 125 g/ha (Kochia (Kochia scoparia) [7]; 125 g ai/ha, visual injury vs untreated controls after approx. 10 d, 0 = no effect, 100 = complete control, read-out: Kochia plant response rating (0 to 100 scale)) of the same molecule?
Answer: The pest or weed control at 125 g/ha was 20%.

Question: What about the pest or weed control at 500 g/ha (Kochia (Kochia scoparia) [7]; 500 g ai/ha, 0 to 100 scale, 0 is no effect, 100 is complete control, read-out: Kochia plant response rating) of the same molecule?
Answer: The pest or weed control at 500 g/ha was 30%.

Question: What about the pest or weed control at 125 g/ha ([8]; 125 g ai/ha, visual injury vs untreated controls after approx. 10 d, 0 = no effect, 100 = complete control, read-out: Ragweed plant response rating (0 to 100 scale)) of the same molecule?
Answer: The pest or weed control at 125 g/ha was 0%.

Question: What about the pest or weed control at 500 g/ha ([8]; 500 g ai/ha, 0 to 100 scale, 0 is no effect, 100 is complete control, read-out: Ragweed plant response rating) of the same molecule?
Answer: The pest or weed control at 500 g/ha was 40%.

Question: And the pest or weed control at 125 g/ha [9, 15]?
Answer: The pest or weed control at 125 g/ha was 90%.

Question: What about the pest or weed control at 500 g/ha ([9]; 500 g ai/ha) of the same molecule?
Answer: The pest or weed control at 500 g/ha was 100%.

Question: What about the pest or weed control at 125 g/ha [10, 15] of the same molecule?
Answer: Its pest or weed control at 125 g/ha is 60%.

Question: What about the pest or weed control at 500 g/ha ([10]; 500 g ai/ha) of the same molecule?
Answer: The pest or weed control at 500 g/ha was 90%.

Question: And the pest or weed control at 125 g/ha [11, 15]?
Answer: Its pest or weed control at 125 g/ha is 90%.

Question: What about the pest or weed control at 500 g/ha ([11]; 500 g ai/ha) of the same molecule?
Answer: Its pest or weed control at 500 g/ha is 100%.

Question: And the pest or weed control at 125 g/ha [12, 15]?
Answer: Its pest or weed control at 125 g/ha is 30%.

Question: And the pest or weed control at 500 g/ha ([12]; 500 g ai/ha)?
Answer: Its pest or weed control at 500 g/ha is 80%.

Question: What about the pest or weed control at 125 g/ha (Kochia (Kochia scoparia) [13]; [15]) of the same molecule?
Answer: Its pest or weed control at 125 g/ha is 20%.

Question: And the pest or weed control at 500 g/ha (Kochia (Kochia scoparia) [13]; 500 g ai/ha)?
Answer: Its pest or weed control at 500 g/ha is 90%.

Question: What about the pest or weed control at 125 g/ha [14, 15] of the same molecule?
Answer: Its pest or weed control at 125 g/ha is 0%.

Question: And the pest or weed control at 500 g/ha ([14]; 500 g ai/ha)?
Answer: The pest or weed control at 500 g/ha was 30%.
